The numbers were not newly measured in patent publication US20240016826A1, “COMPOSITION, PHARMACEUTICAL COMPOSITION, USE OF A STABLE TOPICAL COMPOSITION COMPRISING A NANOEMULSION AND OF AT LEAST ONE ANTILEISHMANIAL COMPOUND, AND METHOD FOR THE TREATMENT OF CUTANEOUS LEISHMANIASIS” (priority 2020, published 2024), which cites them from elsewhere.

The data set concerns L. (L.) major. Conditions: Old World patients, cutaneous leishmaniasis due to L. (L.) major (MOHEBALI et al., 2007).

With `CCCCCCCCCCCCCCCCOP(=O)([O-])OCC[N+](C)(C)C` [miltefosine, hexadecylphosphocholine], the cure rate is given as 93%.
